Measured values published in patent publication EP4810065A1, “COMBINED USE OF ANTIBODY-DRUG CONJUGATE AND POLY(ADENOSINE D[…]) POLYMERASE INHIBITOR” (Jiangsu Hansoh Pharmaceutical Group Co., Ltd., priority 2023, dated 2025).

Legend:
[1] = tested on: human ovarian cancer OV0243; test: OV0243 human ovarian cancer PDX subcutaneous xenograft model; type: in vivo, BALB/c nude mice; settings: for TGI (%): D27, tumor regression formula
Experimental: • Drug A was prepared by dilution with normal saline, and drug B was prepared using 0.5% HPMC; • OV0243 (mild cachexia), human ovarian cancer tumor tissue, was provided by Crown Bioscience (Beijing) Inc. • BALB/c nude mice, female, body weight 16-22 g, were purchased from Jiangsu Jicui Yaokang Biotechnology Co., Ltd.
OV0243 human ovarian cancer tissue was uniformly cut into tumor pieces with a diameter of 2-3 mm and inoculated subcutaneously at the right front scapular region of BALB/c nude mice, and tumor growth was regularly observed. When the average tumor volume reached 100-150 mm^3, random grouping was performed based on the tumor size and mouse body weight in accordance with Table 4-1. The tumor diameter was measured twice a week with a vernier caliper, and the calculation formula for tumor volume (V) was:V = 1/2×a×b^2 where a, b respectively indicate length and width.
(§1) The experimental indicator was to examine the effect of the drug on tumor growth, and the specific indicator was the tumor growth inhibition rate TGI (%).
(§2) Calculation of TGI (%): When there was no tumor regression, TGI (%) = [1 - (average tumor volume of a certain treatment group at the end of administration - average tumor volume of that treatment group at grouping)/(average tumor volume of the vehicle control group at the end of treatment - average tumor volume of the vehicle control group at grouping)] × 100%. When there was tumor regression, TGI (%) = [1 - (average tumor volume of a certain treatment group at the end of administration - average tumor volume of that treatment group at grouping)/average tumor volume of that treatment group at grouping] × 100%.
(§3) At the end of the experiment, upon reaching the experimental endpoint, or when the average tumor volume reached 2000 mm^3, the animals were euthanized under CO2 anesthesia, and then dissected for tumor collection and photographing.
(§4) The experimental data were analyzed and plotted using GraphPad Prism 9.4. Based on the tumor volume data of each group at different time points, Dunnett's multiple comparisons test in Two-way ANOVA was used for statistical analysis to evaluate differences among groups.
The invivoSyn method was used to analyze the synergistic effect of the combination treatment. First, based on the exponential growth model, the tumor growth rate of each mouse (eGR, exponential growth rate) and the average tumor growth rate of each group (eGRg) were calculated. Then, the relative survival rate of the treatment group and the control group was calculated by using the conditional probability formula Pr(T|C)=ST/SC, wherein SA, SB, and SAB are respectively defined as the relative survival rates of single-drug group A, single-drug group B, and the combination administration group at time point t. SA = (exp(eGRA*t))/(exp(eGRC*t)) [formula] SB = (exp(eGRB*t))/(exp(eGRC*t)) [formula] SAB = (exp(eGRAB*t))/(exp(eGRC*t)) [formula]
Based on the highest single-drug effect model (HSA, Highest Single Agent), the expected survival rate E(SAB) of the combination administration group was calculated. For the HSA model, E(SAB) = min(SA, SB). CI (Combination Index) is defined as the ratio of the observed survival rate SAB of the combination administration group to E(SAB), while the synergistic effect score (SS, Synergy Score) is defined as the percentage difference between E(SAB) and SAB. When the CI value is less than 1 or the SS value is greater than 0, the combination is considered to have a synergistic effect. p values and confidence intervals were calculated using the stratified bootstrap method (Stratified bootstrap). Table 4-1. Dosing regimen of drug A in combination with drug B in the OV0243 model

[2] = tested on: RL95-2 endometrial cancer cell mouse xenografts; test: RL95-2 human endometrial cancer subcutaneous xenograft model; type: in vivo, nude mice
Experimental: (§5) Drug A was prepared by dilution with normal saline, and drug B was prepared using 0.5% HPMC; Human endometrial cancer cells RL95-2 were cultured in vitro in a cell incubator at 37°C and 5% CO2. Routine digestion treatment and passaging were carried out twice a week using trypsin-EDTA. When the cell confluence was 80%-90% and the number of cells reached the requirement, the cells were collected, counted, and inoculated.
(§6) RL95-2 cells were resuspended in PBS, the density after resuspension was 100 × 10^6/mL, the resuspended cells were mixed with an equal volume of Matrigel, inoculated subcutaneously into the right dorsal side of each mouse, 0.1 mL was inoculated into each mouse (5 × 10^6 cells/animal), and when the average tumor volume grew to 100-150 mm^3, grouping was carried out (D1), and administration was started on the day of grouping. The mice were administered by gavage (p.o.) once daily; the mice were administered by tail vein injection (i.v.) as a single administration; the administration volume was 10 mL/kg; the vehicle group was given the same volume of "vehicle"; the specific administration doses and administration regimens are shown in Table 5-1. Tumor volume was measured, mouse body weight was weighed, and data were recorded.
as §1
(§7) The tumor diameter was measured twice a week with a vernier caliper, and the calculation formula for tumor volume (V) was:V = 1/2×a×b^2 where a, b respectively indicate length and width.
as §2, §3
as §4, with “groups. […] Table 5-1. Dosing regimen of drug A in combination with drug B in the RL95-2 model” for “groups.”

[3] = tested on: EN cells; test: CTG growth inhibition, drug A/drug B cross-combination, 6 days; type: cell-based, human; settings: Drug B alone, 4.12-1000.00 nM
Experimental: (§8) Tumor cells in good growth condition were seeded into 96-well plates. After overnight growth onto the wall, different concentrations of the test substances were administered, with different concentrations of the two test substances arranged in a cross-combination design.
(§9) The starting concentration of test drug A was 1000 nM, which was subjected to 1:3 serial dilution to generate a total of 6 concentration levels; the starting concentration of test drug B was set at 1000 nM, which was subjected to 1:3 serial dilution to generate a total of 6 concentration levels. After the combined test substances had acted on each cell line for 6 days, the CTG method was used to detect the in vitro proliferation inhibitory effect of the combined use of the test drugs on tumor cells. Table 2-1 Drug A and drug B treatment dosing scheme
(§10) Based on the signal values measured by the microplate reader, the cell growth inhibition rate was calculated according to the following formula: Growth inhibition rate % (growth inhibition%) = [1-(measured value-minimum value mean-background value)/(maximum value mean-background value-minimum value mean)] ×100% (measured value: reading value of compound wells; minimum value: reading value of ZPE wells (reading value of wells containing cell culture medium without cells); maximum value: reading value of HPE wells (cell reading value of the DMSO treatment group); background value: cell background measured value before addition of the compound).

[4] = tested on: MX-1 cells; test: as above; type: cell-based, human; settings: Drug B alone, 4.12-1000.00 nM
Experimental: as §8, §9, §10

[5] = tested on: OAW42 cells; test: as above; type: cell-based, human; settings: Drug B alone, 4.12-1000.00 nM
Experimental: as §8, §9, §10

[6] = tested on: CAL-51 cells; test: as above; type: cell-based, human; settings: Drug B alone, 4.12-1000.00 nM
Experimental: as §8, §9, §10

[7] = tested on: HEC-1A cells; test: as above; type: cell-based, human; settings: Drug B alone, 4.12-1000.00 nM
Experimental: as §8, §9, §10

[8] = tested on: COV362 cells; test: as above; type: cell-based, human; settings: Drug B alone, 4.12-1000.00 nM
Experimental: as §8, §9, §10

[9] = tested on: SK-OV-3 cells; test: as above; type: cell-based, human; settings: Drug B alone, 4.12-1000.00 nM
Experimental: as §8, §9, §10

[10] = tested on: MX-1 human breast cancer cell mouse xenografts; test: MX-1 human breast cancer subcutaneous xenograft model; type: in vivo, Balb/c nude mice
Experimental: as §5, with “breast” for “endometrial”, “cancer MX-1” for “cancer”, “cells” for “cells RL95-2”, “cultured as a monolayer” for “cultured”, “vitro under culture conditions of DMEM/F12 medium supplemented with 10% fetal bovine serum, 100 U/mL penicillin, and 100 µg/mL streptomycin, and cultured” for “vitro”
Balb/c nude mice, female, body weight 17-25 g, were purchased from Shanghai Bi Kai Ke Yi Biotechnology Co., Ltd.
as §6, with “MX-1 cells were” for “RL95-2 cells were”, “resuspension was 100×10^6/mL, the resuspended” for “resuspension was 100 × 10^6/mL, the resuspended”, “each mouse (5×10^6 cells/animal), and” for “each mouse (5 × 10^6 cells/animal), and”, “(D1), and drug administration was” for “(D1), and administration was”, “in Table 3-1. Tumor volume” for “in Table 5-1. Tumor volume”
as §1, §7, §2, §3
as §4, with “groups. […] Table 3-1. Dosing regimen of drug A in combination with drug B in the MX-1 model” for “groups.”

[11] = D0 (at grouping), Drug B 1 mg/kg p.o. QD*28 times
[12] = D28, Drug B 1 mg/kg p.o. QD*28 times

CCc1cc2ncc(CN3CC=C(c4ccc(C(=O)NC)nc4)CC3)cc2[nH]c1=O [Drug B, 1'-((7-ethyl-6-oxo-5,6-dihydro-1,5-naphthyridin-3-yl)methyl)-N-methyl-1',2',3',6'-tetrahydro-[3,4'-bipyridine]-6-carboxamide]
Average tumor volume (mm^3) ± SEM ([1]; D0 (at grouping), Drug B 0.1 mg/kg p.o. QD*28 times): 137±2 mm^3 | Average tumor volume (mm^3) ± SEM [1, 11]: 138±2 mm^3 | TGI (%) ([1]; Drug B 0.1 mg/kg p.o. QD*28 times): 129.84% | TGI (%) ([1]; Drug B 1 mg/kg p.o. QD*28 times): 191.94% | Average tumor volume (mm^3) ± SEM ([1]; Day 27, Drug B 0.1 mg/kg p.o. QD*28 times): 96±14 mm^3 | Average tumor volume (mm^3) ± SEM ([1]; Day 27, Drug B 1 mg/kg p.o. QD*28 times): 11±6 mm^3 | Average tumor volume (mm^3) ± SEM ([1]; Day 55, Drug B 0.1 mg/kg p.o. QD*28 times): 3±3 mm^3 | Average tumor volume (mm^3) ± SEM ([1]; Day 55, Drug B 1 mg/kg p.o. QD*28 times): 0±0 mm^3 | Average tumor volume (mm^3) ± SEM ([1]; Day 83 (day 56 after drug withdrawal), Drug B 0.1 mg/kg p.o. QD*28 times): 78±27 mm^3 | Average tumor volume (mm^3) ± SEM ([1]; Day 83 (day 56 after drug withdrawal), Drug B 1 mg/kg p.o. QD*28 times): 50±23 mm^3 | tumor growth inhibition, monotherapy ([1]; OV0243 model, conclusion): significantly inhibit the growth of xenograft tumors in nude mice | tolerability ([1]; OV0243 tumor-bearing mice): could well tolerate | body weight decrease of 1 animal ([1]; drug B 0.1 mg/kg, by day 51, euthanasia): greater than 20% | body weight decrease of 1 animal ([1]; drug B 0.1 mg/kg, day 23): 17.39% | animals with partial tumor regression ([1]; drug B 0.1 mg/kg, day 27): 5/6 | average body weight change rate ([1]; drug B 0.1 mg/kg, day 27): 2.18% | animals with complete tumor regression ([1]; drug B 1 mg/kg, day 27): 3/6 | animals with partial tumor regression ([1]; drug B 1 mg/kg, day 27): 3/6 | average body weight change rate ([1]; drug B 1 mg/kg, day 27): 3.75% | Average tumor volume (mm^3) + SEM [2, 11]: 134+7 mm^3 | Average tumor volume (mm^3) + SEM [2, 12]: 1097+109 mm^3 | T/C (%) [2, 12]: 95.50% | TGI (%) [2, 12]: 5.08% | tolerability ([2]; RL95-2 tumor-bearing mice): could well tolerate | tumor growth inhibition ([2]; RL95-2 xenograft mouse model): had no obvious inhibitory effect on tumor growth | Growth inhibition rate ([3]; drug B 4.12 nM): 31.13% | Growth inhibition rate ([3]; drug B 12.35 nM): 22.59% | Growth inhibition rate ([3]; drug B 37.04 nM): 24.15% | Growth inhibition rate ([3]; drug B 111.11 nM): 27.18% | Growth inhibition rate ([3]; drug B 333.33 nM): 24.54% | Growth inhibition rate ([4]; drug B 4.12 nM): 33.15% | Growth inhibition rate ([4]; drug B 12.35 nM): 31.24% | Growth inhibition rate ([4]; drug B 37.04 nM): 33.85% | Growth inhibition rate ([4]; drug B 111.11 nM): 40.59% | Growth inhibition rate ([4]; drug B 333.33 nM): 46.92% | Growth inhibition rate ([5]; drug B 4.12 nM): 6.29% | Growth inhibition rate ([5]; drug B 12.35 nM): 4.07% | Growth inhibition rate ([5]; drug B 37.04 nM): 6.30% | Growth inhibition rate ([5]; drug B 111.11 nM): 7.53% | Growth inhibition rate ([5]; drug B 333.33 nM): 12.46% | Growth inhibition rate ([6]; drug B 4.12 nM): 9.89% | Growth inhibition rate ([6]; drug B 12.35 nM): 8.42% | Growth inhibition rate ([6]; drug B 37.04 nM): 12.34% | Growth inhibition rate ([6]; drug B 111.11 nM): 11.19% | Growth inhibition rate ([6]; drug B 333.33 nM): 15.02% | Growth inhibition rate ([7]; drug B 4.12 nM): 3.73% | Growth inhibition rate ([7]; drug B 12.35 nM): 4.25% | Growth inhibition rate ([7]; drug B 37.04 nM): 5.84% | Growth inhibition rate ([7]; drug B 111.11 nM): 9.01% | Growth inhibition rate ([7]; drug B 333.33 nM): 7.40% | Growth inhibition rate ([8]; drug B 4.12 nM): 22.59% | Growth inhibition rate ([8]; drug B 12.35 nM): 22.45% | Growth inhibition rate ([8]; drug B 37.04 nM): 21.18% | Growth inhibition rate ([8]; drug B 111.11 nM): 25.95% | Growth inhibition rate ([8]; drug B 333.33 nM): 23.74% | Growth inhibition rate ([9]; drug B 4.12 nM): 3.96% | Growth inhibition rate ([9]; drug B 12.35 nM): 2.49% | Growth inhibition rate ([9]; drug B 37.04 nM): 2.34% | Growth inhibition rate ([9]; drug B 111.11 nM): 6.14% | Growth inhibition rate ([9]; drug B 333.33 nM): 9.22% | Average tumor volume (mm^3) ± SEM ([10]; D0 (at grouping), Drug B 0.3 mg/kg): 148±7 mm^3 | Average tumor volume (mm^3) ± SEM ([10]; D28, Drug B 0.3 mg/kg): 199±20 mm^3 | TGI (%) ([10]; D28, Drug B 0.3 mg/kg): 97.25% | Partial regression ([10]; D28, Drug B 0.3 mg/kg, animals with partial regression/animals in group): 2/8 | tolerability (body weight, death, abnormal symptoms) ([10]; MX-1 tumor-bearing mice): could well tolerate
